Values of other authors in patent US5922837A, “Antiprotozoal cyclic tetrapeptides” (Merck & Co., Inc., priority 1997, dated 1999).

Columns and labels:
[1] = test system: mammalian histone deacetylase
[2] = test system: partially purified yeast histone deacetylase
[3] = test system: murine erythroleukemia cells
[4] = test system: sis-transformed fibroblast cells
[5] = test system: v-sis-transformed NIH3T3 cells

Compound	type of inhibition of mammalian histone deacetylase [1]	inhibition of partially purified yeast histone deacetylase [2]	anti-trichomonal activity (trichomonal)	cell differentiating activity [3]	induction of phenotypic reversion [4]	morphological reversion [5]
CC(/C=C/C(=O)NO)=C\[C@@H](C)C(=O)c1ccc(N(C)C)cc1 [trichostatin A]	reversible	inhibit	anti-trichomonal activity	cell differentiating activity	ability to induce phenotypic reversion	–
trapoxin A	irreversible	–	–	–	–	induces morphological reversion
